# Source: paper PMC8444087 (Toxicology and Applied Pharmacology, 2021)
# Bridge positions count the residues as written; N and C are the ends. Ends that are not written are not given here.
# Legend:
# [1] = target: T1, α10β1 (UniProt O75578+P09055); assay: Cellular static adhesion assay: C2C12 cells expressing α10β1 on collagen peptides; format: cell-based, human α-subunit, mouse β-subunit; conditions: C2C12-α10β1, GFOGER and GLOGEN coatings
# T1 construct: expressed in transfected cells; host or cells: C2C12-α10 clone (gift, Xintela AB)
# T1 sequence (O75578 23-1167): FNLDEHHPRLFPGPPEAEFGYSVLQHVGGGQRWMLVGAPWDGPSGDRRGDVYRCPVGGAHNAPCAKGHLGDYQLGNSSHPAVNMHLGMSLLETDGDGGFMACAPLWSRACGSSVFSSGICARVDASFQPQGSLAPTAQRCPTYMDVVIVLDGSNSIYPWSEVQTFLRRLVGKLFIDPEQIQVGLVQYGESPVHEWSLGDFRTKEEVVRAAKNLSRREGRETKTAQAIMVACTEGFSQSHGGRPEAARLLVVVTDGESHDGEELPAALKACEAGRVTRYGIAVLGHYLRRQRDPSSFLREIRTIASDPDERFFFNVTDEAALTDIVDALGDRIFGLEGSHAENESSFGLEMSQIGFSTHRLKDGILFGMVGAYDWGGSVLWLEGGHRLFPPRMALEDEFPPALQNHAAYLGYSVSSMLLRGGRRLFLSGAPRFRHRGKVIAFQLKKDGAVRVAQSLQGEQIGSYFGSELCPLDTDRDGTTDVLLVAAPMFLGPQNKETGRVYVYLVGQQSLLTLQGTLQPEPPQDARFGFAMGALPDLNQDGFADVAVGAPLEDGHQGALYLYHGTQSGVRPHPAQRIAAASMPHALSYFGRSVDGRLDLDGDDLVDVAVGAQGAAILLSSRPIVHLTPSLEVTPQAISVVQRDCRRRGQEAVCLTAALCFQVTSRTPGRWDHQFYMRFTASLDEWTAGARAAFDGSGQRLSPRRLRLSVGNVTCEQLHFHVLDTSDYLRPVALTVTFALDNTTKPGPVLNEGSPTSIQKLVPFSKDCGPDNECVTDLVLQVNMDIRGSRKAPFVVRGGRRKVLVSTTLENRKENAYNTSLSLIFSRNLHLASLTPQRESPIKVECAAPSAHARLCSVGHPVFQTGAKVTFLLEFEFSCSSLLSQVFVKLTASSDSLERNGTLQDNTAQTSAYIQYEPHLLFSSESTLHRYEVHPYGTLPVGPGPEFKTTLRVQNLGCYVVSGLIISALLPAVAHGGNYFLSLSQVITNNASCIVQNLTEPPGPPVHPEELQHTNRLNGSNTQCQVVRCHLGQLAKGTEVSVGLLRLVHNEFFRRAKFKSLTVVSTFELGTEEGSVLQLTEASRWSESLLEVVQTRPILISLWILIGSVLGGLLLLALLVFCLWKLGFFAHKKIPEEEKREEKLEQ
# T1 sequence (P09055 21-798): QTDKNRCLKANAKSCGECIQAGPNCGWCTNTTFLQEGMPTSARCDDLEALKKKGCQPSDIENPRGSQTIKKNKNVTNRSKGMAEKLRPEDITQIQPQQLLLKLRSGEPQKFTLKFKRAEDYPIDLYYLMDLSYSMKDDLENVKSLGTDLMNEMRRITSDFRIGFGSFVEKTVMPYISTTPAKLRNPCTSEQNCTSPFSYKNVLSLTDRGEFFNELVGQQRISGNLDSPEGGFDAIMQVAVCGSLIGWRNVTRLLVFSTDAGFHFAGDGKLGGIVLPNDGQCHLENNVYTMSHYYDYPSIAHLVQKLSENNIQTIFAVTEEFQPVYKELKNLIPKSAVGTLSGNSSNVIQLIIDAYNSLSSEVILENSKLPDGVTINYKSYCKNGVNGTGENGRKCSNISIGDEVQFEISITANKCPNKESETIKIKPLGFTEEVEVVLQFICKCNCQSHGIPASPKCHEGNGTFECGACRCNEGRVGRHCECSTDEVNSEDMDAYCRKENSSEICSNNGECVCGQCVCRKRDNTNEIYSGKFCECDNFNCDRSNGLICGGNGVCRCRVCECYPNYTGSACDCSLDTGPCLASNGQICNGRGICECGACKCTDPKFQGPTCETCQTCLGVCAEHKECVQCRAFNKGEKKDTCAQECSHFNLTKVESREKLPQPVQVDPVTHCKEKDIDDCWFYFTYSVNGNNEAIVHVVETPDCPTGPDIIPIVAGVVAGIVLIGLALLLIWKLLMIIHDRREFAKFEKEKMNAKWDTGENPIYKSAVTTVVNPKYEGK
# Description: (§1) C2C12s and HT1080s were grown in Lifetech DMEM/10% FBS and 1% penicillin/streptomycin. All cells were maintained under sterile conditions at 37 °C, 5% CO2. Cells were passaged using Trypsin/EDTA at 37 °C for 5 min and DMEM/10% FBS to quench the trypsin. C2C12 cells were transfected as described previously ([Tiger et al., 2001]). The C2C12-α10 clone was kindly made available by Dr. Evy Lundgren-Åkerlund, Xintela AB, Sweden.
# (§2) Immulon 2HB 96-well plates were coated with 100 μl per well of peptides at 10 μg/ml in 0.01 M acetic acid overnight at 4 °C. After 3 × 200 μl/well PBS washes, plates were blocked with 200 μl/well filtered 3% BSA in PBS at RT for 1 h. Plates were washed, and 20,000 cells/well were added at room temperature (RT) for 1 h in serum-free media with 5 mM MgCl2 and varying concentrations of inhibitor. Unbound cells were washed away with 3× washes of 200 μl/well PBS. […] Cell number was quantified using 50 μl per well of the Roche cytotoxicity LDH kit. […] A490 was read in a SpectraMax 190 microplate reader (Molecular Devices). […]
# (§3) PRISM 8.2.1 or later (GraphPad, San Diego, CA, USA), was used for all statistical tests. […] Inhibition curves were analysed using nonlinear regression comparing each data set with either a horizontal line model (null hypothesis, no inhibition) or three-parameter dose-response curve (inhibition occurs). […]
# [2] = target: T2, α1 I-domain (Homo sapiens, UniProt P56199); assay: Protein static adhesion assay: GST-tagged α1 I-domain adhesion to GLOGEN peptide coating; format: binding; conditions: TC-I-15 200 μM, Obtustatin 20 μM, 6F1 10 μg/ml
# T2 construct: GST-tagged αI-domains were tested in static adhesion assays; made in house
# T2 sequence (P56199 161-360 limits assumed): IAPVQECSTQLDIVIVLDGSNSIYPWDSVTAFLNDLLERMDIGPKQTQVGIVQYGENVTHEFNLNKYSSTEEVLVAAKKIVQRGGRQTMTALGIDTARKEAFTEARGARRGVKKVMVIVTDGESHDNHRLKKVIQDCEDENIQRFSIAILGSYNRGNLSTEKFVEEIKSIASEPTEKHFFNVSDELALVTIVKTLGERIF
# Description: Immulon 2HB 96-well plates were coated with 100 μl per well of peptides at 10 μg/ml in 0.01 M acetic acid. After 3 × 200 μl/well washes with washing buffer (1 mg/ml BSA in TBS), plates were blocked with 200 μl per well of filtered 3% BSA in TBS for 1 h at RT. αI-domains were added at 10 μg/ml in washing buffer for 1 h at RT with 5 mM MgCl2 and various concentrations of inhibitor as stated. After 3 × 200 μl/well washes with washing buffer, anti-GST detection antibody (GE Healthcare HRP conjugated anti-GST GERPN1236) were added for 1 h. Plates were washed 4× with 200 μl per well of washing buffer and bound protein was quantified using the Pierce™ TMB Substrate Kit. The colorimetric reaction was stopped with an equal volume of 1 M H2SO4 and A450 was read as above. Each condition was performed in triplicate and each experiment was repeated at least three times using different preparations of proteins. […]
# Fig. 1 Inhibition of binding of recombinant αI-domains to peptide coatings. Adhesion of A, α1 I-domain to GLOGEN and B, α2 I-domain to GFOGER, was measured using anti-GST-HRP conjugated antibody as described in Materials and methods, and is shown as mean A450 ± SD. […]
# [3] = test system: platelets; set-up: method as in Miller et al., 2009; conditions: RGD-containing ligands; ref Miller et al., 2009; cited from earlier work
# [4] = test system: E318A mutation of α2β1; set-up: method as in Miller et al., 2009; conditions: ref Miller et al., 2009; cited from earlier work
# [5] = target: T3, α11β1 (UniProt P09055+Q9UKX5); assay: Cellular static adhesion assay: C2C12 cells expressing α11β1 on collagen peptides; format: cell-based, human α-subunit, mouse β-subunit
# T3 construct: expressed in transfected cells; host or cells: C2C12 mouse myofibroblasts, stably transfected
# T3 sequence (Q9UKX5 23-1188): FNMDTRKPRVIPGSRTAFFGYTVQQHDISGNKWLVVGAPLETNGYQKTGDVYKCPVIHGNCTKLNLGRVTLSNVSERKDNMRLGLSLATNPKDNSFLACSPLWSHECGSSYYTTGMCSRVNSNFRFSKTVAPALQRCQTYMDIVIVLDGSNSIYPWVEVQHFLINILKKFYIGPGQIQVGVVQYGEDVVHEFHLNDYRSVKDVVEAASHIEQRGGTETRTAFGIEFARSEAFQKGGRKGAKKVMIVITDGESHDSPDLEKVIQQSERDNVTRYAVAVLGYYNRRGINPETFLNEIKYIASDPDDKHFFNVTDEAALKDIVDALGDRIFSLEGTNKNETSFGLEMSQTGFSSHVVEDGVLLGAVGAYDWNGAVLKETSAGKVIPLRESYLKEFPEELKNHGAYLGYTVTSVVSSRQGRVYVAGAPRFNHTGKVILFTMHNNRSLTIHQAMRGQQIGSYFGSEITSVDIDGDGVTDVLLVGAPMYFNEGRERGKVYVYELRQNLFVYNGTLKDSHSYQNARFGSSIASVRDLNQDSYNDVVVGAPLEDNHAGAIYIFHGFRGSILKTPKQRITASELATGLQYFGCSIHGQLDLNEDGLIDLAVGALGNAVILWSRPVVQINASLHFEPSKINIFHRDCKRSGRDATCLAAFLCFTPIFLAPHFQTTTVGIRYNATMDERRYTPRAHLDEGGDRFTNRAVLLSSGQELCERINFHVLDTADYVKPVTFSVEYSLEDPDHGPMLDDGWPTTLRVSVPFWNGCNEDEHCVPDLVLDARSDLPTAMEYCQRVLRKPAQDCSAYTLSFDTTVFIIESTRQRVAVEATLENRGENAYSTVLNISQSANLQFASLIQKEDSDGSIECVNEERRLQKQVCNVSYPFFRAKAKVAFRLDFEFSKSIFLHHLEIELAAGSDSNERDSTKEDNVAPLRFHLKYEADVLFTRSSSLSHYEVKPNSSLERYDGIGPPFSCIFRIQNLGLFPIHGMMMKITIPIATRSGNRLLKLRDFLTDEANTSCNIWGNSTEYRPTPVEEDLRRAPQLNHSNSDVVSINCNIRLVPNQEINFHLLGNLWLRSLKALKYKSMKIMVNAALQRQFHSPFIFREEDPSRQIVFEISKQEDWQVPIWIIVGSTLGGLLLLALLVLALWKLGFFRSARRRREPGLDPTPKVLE
# T3 sequence (P09055 21-798): as the sequence (P09055 21-798) above
# Description: as §1, §2, §3
# [6] = target: T4, α2β1 (UniProt P09055+P17301); assay: Cellular static adhesion assay: C2C12 cells expressing α2β1 on collagen peptides; format: cell-based, human α-subunit, mouse β-subunit; conditions: C2C12-α2β1, GFOGER and GLOGEN coatings
# T4 construct: expressed in transfected cells; host or cells: C2C12 mouse myofibroblasts, stably transfected
# Text: (§4) (For interpretation of the references to colour in this figure legend, the reader is referred to the web version of this article.)
# [7] = target: T5, α2β1 (Homo sapiens, UniProt P05556+P17301); assay: Cellular static adhesion assay: HT1080 cells (express α2β1) on GFOGER; format: cell-based; conditions: GFOGER coating, dose curve
# T5 construct: endogenous in cells; host or cells: HT1080 human fibrosarcoma cells
# Text: as §4
# [8] = test system: melanoma; set-up: method as in Marcinkiewicz et al., 2003; Brown et al., 2008; conditions: mice; ref Marcinkiewicz et al., 2003; Brown et al., 2008; cited from earlier work
# [9] = test system: Lewis lung carcinoma; set-up: method as in Marcinkiewicz et al., 2003; Brown et al., 2008; conditions: mouse Lewis lung carcinoma model; ref Marcinkiewicz et al., 2003; Brown et al., 2008; cited from earlier work
# [10] = target: T6, α2 I-domain (Homo sapiens, UniProt P17301); assay: Protein static adhesion assay: GST-tagged α2 I-domain adhesion to GFOGER peptide coating; format: binding; conditions: TC-I-15 200 μM, Obtustatin 20 μM
# T6 construct: GST-tagged αI-domains were tested in static adhesion assays; made in house
# T6 sequence (P17301 188-365 limits assumed): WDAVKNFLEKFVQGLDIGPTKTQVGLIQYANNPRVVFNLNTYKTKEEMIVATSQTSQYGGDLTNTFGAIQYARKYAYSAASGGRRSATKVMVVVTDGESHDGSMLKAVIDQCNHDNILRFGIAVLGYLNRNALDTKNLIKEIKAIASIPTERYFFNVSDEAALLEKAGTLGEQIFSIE
# Description: Peptides contain a binding motif (such as GFOGER) flanked on either side by five GPP repeats and a GPC triplet at both the N- and C-termini. […] Peptides were dissolved at 5 mg/ml in 0.01 M acetic acid, heated to 70 °C for 5 min and allowed to cool overnight to enable triple helix folding. […]
# [11] = target: integrin α1β1 on stably transfected C2C12 cells (human | mouse (endogenous in C2C12)) (UniProt P56199); assay: static cell adhesion assay; inhibition by obtustatin (dose curve) of the adhesion of integrin-expressing cells to coated GLOGEN; 1 h at RT, serum-free medium, 5 mM MgCl2; three-parameter dose-response fit
# integrin α1β1 on stably transfected C2C12 cells (human | mouse (endogenous in C2C12)), sequence (P56199 29-1179, chain 1 of 2): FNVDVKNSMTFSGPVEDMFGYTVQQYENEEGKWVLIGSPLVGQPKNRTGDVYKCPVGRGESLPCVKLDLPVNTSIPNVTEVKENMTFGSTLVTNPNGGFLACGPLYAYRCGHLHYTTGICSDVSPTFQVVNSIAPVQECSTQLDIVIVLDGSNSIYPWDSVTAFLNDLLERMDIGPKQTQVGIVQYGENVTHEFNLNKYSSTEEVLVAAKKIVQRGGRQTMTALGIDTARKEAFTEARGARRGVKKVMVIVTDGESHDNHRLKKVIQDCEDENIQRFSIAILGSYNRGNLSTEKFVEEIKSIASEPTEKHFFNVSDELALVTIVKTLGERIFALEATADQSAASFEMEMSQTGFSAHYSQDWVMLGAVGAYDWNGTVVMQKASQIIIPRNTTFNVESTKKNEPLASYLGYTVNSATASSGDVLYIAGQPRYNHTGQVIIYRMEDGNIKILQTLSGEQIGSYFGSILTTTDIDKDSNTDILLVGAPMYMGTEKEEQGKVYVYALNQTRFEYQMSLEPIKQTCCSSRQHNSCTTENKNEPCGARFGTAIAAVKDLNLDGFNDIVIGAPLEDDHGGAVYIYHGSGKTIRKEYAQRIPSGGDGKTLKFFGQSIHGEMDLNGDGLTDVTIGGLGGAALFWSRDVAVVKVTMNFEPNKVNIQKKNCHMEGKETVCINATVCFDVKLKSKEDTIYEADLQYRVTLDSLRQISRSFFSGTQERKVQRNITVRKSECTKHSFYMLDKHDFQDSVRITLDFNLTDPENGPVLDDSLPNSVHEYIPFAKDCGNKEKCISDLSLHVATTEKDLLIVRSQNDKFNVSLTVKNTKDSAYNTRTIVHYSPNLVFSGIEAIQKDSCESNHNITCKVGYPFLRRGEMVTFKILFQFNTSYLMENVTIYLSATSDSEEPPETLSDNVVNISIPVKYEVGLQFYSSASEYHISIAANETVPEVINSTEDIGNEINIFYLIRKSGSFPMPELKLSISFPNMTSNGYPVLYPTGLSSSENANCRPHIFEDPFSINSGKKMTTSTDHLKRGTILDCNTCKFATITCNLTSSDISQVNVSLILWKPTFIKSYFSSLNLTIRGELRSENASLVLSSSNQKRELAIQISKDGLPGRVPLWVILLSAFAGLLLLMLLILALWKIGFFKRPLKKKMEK
# integrin α1β1 on stably transfected C2C12 cells (human | mouse (endogenous in C2C12)), sequence (P09055 21-798, chain 2 of 2, further chain): as the sequence (P09055 21-798) above
# [12] = target: integrin α1β1 on stably transfected C2C12 cells (human | mouse (endogenous in C2C12)) (UniProt P56199); assay: static cell adhesion assay; inhibition by obtustatin (dose curve) of the adhesion of integrin-expressing cells to coated GFOGER; 1 h at RT, serum-free medium, 5 mM MgCl2; three-parameter dose-response fit
Compound,Inhibition of α10β1-expressing C2C12 cell adhesion (dose curve) [1],Effect on α1 I-domain adhesion to GLOGEN [2],Effect on adhesion of platelets to fibronectin and fibrinogen [3],Effect on constitutively active E318A mutation of α2β1 [4],"IC50 ([5]; C2C12-α11β1, GLOGEN coating, 5 mM MgCl2, 1 h RT, read-out: IC50, inhibition of α11β1-expressing C2C12 cell adhesion to GLOGEN)",Inhibition of α2β1-expressing C2C12 cell adhesion (dose curve) [6],Effect on HT1080 adhesion to GFOGER [7],Effect on melanoma growth [8],Reduction of tumour development [9],Effect on α2 I-domain adhesion to GFOGER [10],"Inhibition of α11β1-expressing C2C12 cell adhesion (dose curve) ([5]; C2C12-α11β1, GFOGER and GLOGEN coatings)",IC50 [11],IC50 [12]
CC1(C)SCN(S(=O)(=O)c2ccccc2)[C@@H]1C(=O)N[C@@H](CNC(=O)NCc1ccccc1)C(=O)O [TC-I-15],no inhibition was seen,unaffected,no effect,no effect,177000 nM,–,–,–,–,–,–,–,–
"CTTGPCCRQCKLKPAGTTCWKTSLTSHYCTGKSCDCPLYPG (disulfide 1-10, 6-29, 7-34, 19-36 (inferred)) [obtustatin]",no inhibition was observed,unaffected,–,–,–,no inhibition was observed,no effect,blocked melanoma growth,50%,unaffected,no inhibition was observed,–,–
obtustatin (peptide),–,–,–,–,–,–,–,–,–,–,–,960 nM,450 nM
